Assay results: ChEMBL document CHEMBL3351421, “Novel styryl-indoles as small molecule inhibitors of 25-hydroxyvitamin D-24-hydroxylase (CYP24A1): Synthesis and biological evaluation” (Eur J Med Chem, 2014)
pIC50, pKi: −log10 of the molar value.

molecular target: T1, 1,25-dihydroxyvitamin D(3) 24-hydroxylase, mitochondrial (Homo sapiens, UniProt Q07973); test: Inhibition of N-terminally MBP-fused human CYP24A1 by cell-free assay
T1 sequence (Q07973 whole entry): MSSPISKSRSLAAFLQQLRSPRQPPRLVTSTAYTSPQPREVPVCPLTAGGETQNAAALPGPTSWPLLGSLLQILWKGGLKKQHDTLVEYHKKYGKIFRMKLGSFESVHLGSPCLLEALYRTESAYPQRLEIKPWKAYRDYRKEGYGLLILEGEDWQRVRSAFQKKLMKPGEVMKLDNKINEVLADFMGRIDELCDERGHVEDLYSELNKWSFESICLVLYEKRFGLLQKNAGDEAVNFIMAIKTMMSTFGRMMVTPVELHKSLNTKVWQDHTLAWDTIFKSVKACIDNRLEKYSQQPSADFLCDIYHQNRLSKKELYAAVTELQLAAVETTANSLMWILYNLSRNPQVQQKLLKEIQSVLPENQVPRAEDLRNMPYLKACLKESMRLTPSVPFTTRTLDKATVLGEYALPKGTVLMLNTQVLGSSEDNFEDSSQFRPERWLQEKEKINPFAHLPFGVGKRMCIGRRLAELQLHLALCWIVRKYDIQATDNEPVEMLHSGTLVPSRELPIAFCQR

Row | Compound | pIC50 | pKi
1 | C(=C\c1cccc2c1ccn2CCCn1ccnc1)/c1ccccc1 | 6.44 | 7.59
2 | COc1cc(/C=C/c2cccc3c2ccn3CCCn2ccnc2)cc(OC)c1 | 6.36 | 7.51
3 | C(=C\c1cccc2c1ccn2CCCCn1ccnc1)/c1ccccc1 | 6.70 | 7.85
4 | COc1cc(/C=C/c2cccc3c2ccn3CCCCn2ccnc2)cc(OC)c1 | 6.72 | 7.85
5 | C(=C\c1ccc2c(ccn2CCCn2ccnc2)c1)/c1ccccc1 | 6.28 | 7.43
6 | C(=C\c1ccc2c(ccn2CCCCn2ccnc2)c1)/c1ccccc1 | 6.28 | 7.43
7 | Cc1ccc(S(=O)(=O)NCCCn2ccc3c(/C=C/c4ccccc4)cccc32)cc1 | 5.32 | 6.47
8 | COc1cc(/C=C/c2cccc3c2ccn3CCCNS(=O)(=O)c2ccc(C)cc2)cc(OC)c1 | 4.98 | 6.14
9 | Cc1ccc(S(=O)(=O)NCCCCn2ccc3c(/C=C/c4ccccc4)cccc32)cc1 | 5.48 | 6.64
10 | COc1cc(/C=C/c2cccc3c2ccn3CCCCNS(=O)(=O)c2ccc(C)cc2)cc(OC)c1 | 4.98 | 6.13
11 | O=S(OCCCn1ccc2c(/C=C/c3ccccc3)cccc21)c1ccccc1 (stereo unspecified) | 5.12 | 6.27
12 | Cc1ccc(S(=O)(=O)OCCCn2ccc3c(/C=C/c4ccccc4)cccc32)cc1 | 5.05 | 6.19
13 | COc1cc(/C=C/c2cccc3c2ccn3CCCOS(=O)(=O)c2ccc(C)cc2)cc(OC)c1 | 4.77 | 5.92
